The values below come from US9216968B2, “Heterocyclic derivative and pharmaceutical drug” (NIPPON SHINYAKU CO., LTD., priority 2011, dated 2015).

pIC50: −log10 of the molar value. Counter-ions that a name gives are not always drawn. Where only a bound is given, the exact number is not on record here.

In one test the target is human mPGES-1 (Homo sapiens (Human), UniProt O14684). Briefly: mPGES-1 inhibiting activity (microsome fractions, PGE2 by HTRF). Type of test: biochemical. As to conditions: microsomes from CHO-K1 cells transfected with human mPGES-1; PGH2 1 μM, 4° C., 60 seconds; read-out: mPGES-1 Inhibition IC50. As for the experimental part: mPGES-1 microsome fractions were prepared from CHO-K1 cells transiently transfected with plasmid encoding the human mPGES-1cDNA. Microsomes were diluted with potassium phosphate buffer containing reduced glutathione (pH7.4), and DMSO containing test compound or DMSO alone was added (such that DMSO final concentration would be 1% in each) and incubated at 4° C. for 20 minutes. Then, the enzymatic reactions were initiated by the addition of PGH2 substrate (final concentration 1 μM) and incubated at 4° C. for 60 seconds. The reaction was terminated by the addition of a citrate solution (final citrate concentration 50 mM) containing ferric chloride (final concentration 1 mg/mL). PGE2 production in the enzyme reaction aliquot was measured using HTRF kit (Cisbio International, catalogue #62P2APEC). The solution free of test compound was used as positive control, and the solution free of test compound and microsome sample was used as negative control. 100% activity was defined as PGE2 production in the positive control minus PGE2 production in negative control. IC50 value was calculated by standard method.
On the technique in general: In TR-FRET formats the signal depends on donor and acceptor labels being close together.

For the next test, the system named is A549 cells. Briefly: Inhibition of PGE2 production in A549 cell (IL-1β stimulated). Type of test: cell-based, human. As to conditions: Homo sapiens, A549, 24 h, IL-1β 5 ng/well, PGE2 in culture medium. As for the experimental part: Human A549 cells were seeded onto a 96-well plate at 2×10^4 cells/100 μL per well and allowed to incubate overnight. After removing the culture medium and washing with phosphate buffered saline, the culture medium was replaced by RPMI culture medium with 3% FBS containing a DMSO solution containing test compound or DMSO alone (such that DMSO final concentration would be […] in each). After incubation for 60 minutes, IL-1β (5 ng/well) was added and incubated at 37° C. for 24 hours. Then, PGE2 in the culture medium was measured using HTRF kit (Cisbio International, catalogue #62P2APEC), and PGF2α in the culture medium was measured using EIA kit (Cayman Chemical Company, catalogue #516011). The solution free of test compound was used as positive control, and the solution free of test compound and IL-1β was used as negative control. 100% activity was defined as PGE2 and PGF2α production in the positive control minus PGE2 and PGF2α production in the negative control. IC50 value was calculated by standard method.

Sequence of human mPGES-1 (O14684 whole entry): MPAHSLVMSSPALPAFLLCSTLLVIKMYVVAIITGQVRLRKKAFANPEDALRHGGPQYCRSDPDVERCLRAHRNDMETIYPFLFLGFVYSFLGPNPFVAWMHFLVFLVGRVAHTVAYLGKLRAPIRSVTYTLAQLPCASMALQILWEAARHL

As to `Cc1c(Cl)cccc1NC(=O)c1cc(NC(=O)c2ccccc2C(F)(F)F)cc2[nH]c(N(C)C)nc12` [Example 145, N-(3-Chloro-2-methylphenyl)-2-(dimethylamino)-6-({[2-(trifluoromethyl)phenyl]carbonyl}amino)-1H-benzimidazole-4-carboxamide hydrochloride], the results for the negative-log IC50 (pIC50) at human mPGES-1 and with A549 cells were 8.80 and 7.89, respectively.

`Cc1c(Cl)cccc1NC(=O)c1cc(NC(=O)c2c(F)cccc2Cl)cc2[nH]c(NC[C@@H]3CCCO3)nc12` [Example 198, 6-{[(2-Chloro-6-fluorophenyl)-carbonyl]amino}-N-(3-chloro-2-methylphenyl)-2-{[(2S)-tetrahydrofuran-2-ylmethyl]amino}-1H-benzimidazole-4-carboxamide hydrochloride]: the pIC50 was 8.22 on human mPGES-1 and 7.47 with A549 cells.

Consider `COCc1nc2c(C(=O)Nc3cccc(Cl)c3C)cc(NC(=O)c3cc(F)ccc3Cl)cc2[nH]1` [Example 94, 6-{[(2-Chloro-5-fluorophenyl)carbonyl]amino}-N-(3-chloro-2-methylphenyl)-2-(methoxymethyl)-1H-benzimidazole-4-carboxamide hydrochloride], for which the pIC50 on human mPGES-1 was 8.04; with A549 cells it was 6.74.

As for `Cc1c(Cl)cccc1NC(=O)c1cc(NC(=O)c2cc(Cl)ccc2Cl)cc2[nH]c(N(C)C)nc12` [Example 185, N-(3-Chloro-2-methylphenyl)-6-{[(2,5-dichlorophenyl)carbonyl]amino}-2-(dimethylamino)-1H-benzimidazole-4-carboxamide hydrochloride], the negative-log IC50 (pIC50) was 8.35 on human mPGES-1 and 8.25 with A549 cells.

Regarding `COCc1nc2c(C(=O)Nc3cccc(Cl)c3C)cc(NC(=O)c3ccc(F)cc3Cl)cc2[nH]1` [Example 93, 6-{[(2-Chloro-4-fluorophenyl)carbonyl]amino}-N-(3-chloro-2-methylphenyl)-2-methoxymethyl-1H-benzimidazole-4-carboxamide hydrochloride], the pIC50 at human mPGES-1 was 8.38; in the test with A549 cells, 6.81.

Regarding `Cc1c(Cl)cccc1NC(=O)c1cc(NC(=O)c2ccccc2C(F)(F)F)cc2[nH]c(C(C)(C)CCl)nc12` [Example 57, N-(3-Chloro-2-methylphenyl)-2-(1-chloro-2-methylpropan-2-yl)-6-({[2-(trifluoromethyl)phenyl]carbonyl}amino)-1H-benzimidazole-4-carboxamide], the pIC50 on human mPGES-1 is 9.30; in the test on A549 cells, 7.77.

In the case of `CSc1nc2c(C(=O)Nc3cccc(Cl)c3C)cc(NC(=O)c3ccccc3C(F)(F)F)cc2[nH]1` [Example 179, N-(3-Chloro-2-methylphenyl)-2-(methylsulfanyl)-6-({[2-(trifluoromethyl)phenyl]carbonyl}amino)-1H-benzimidazole-4-carboxamide], the pIC50 on human mPGES-1 is 8.44; with A549 cells, 7.69.

On to `Cc1c(Cl)cccc1NC(=O)c1cc(NC(=O)c2ccccc2C(F)(F)F)cc2[nH]c(NCC(C)(C)CN(C)C)nc12` [Example 154, N-(3-Chloro-2-methylphenyl)-2-{[3-(dimethylamino)-2,2-dimethylpropyl]amino}-6-({[2-(trifluoromethyl)phenyl]carbonyl}amino)-1H-benzimidazole-4-carboxamide hydrochloride], for which the pIC50 was 7.70 at human mPGES-1 and 7.19 with A549 cells.

Regarding `CCOCCOCc1ccc(Cl)c(C(=O)Nc2cc(C(=O)Nc3cccc(Cl)c3C)c3nc(COC)[nH]c3c2)c1` [Example 121, 6-[({2-Chloro-5-[(2-ethoxyethoxy)methyl]phenyl}carbonyl)amino]-N-(3-chloro-2-methylphenyl)-2-(methoxymethyl)-1H-benzimidazole-4-carboxamide hydrochloride], the pIC50 at human mPGES-1 is 8.20; in the test with A549 cells, 6.36.

Regarding `COCc1nc2c(C(=O)Nc3cccc(Cl)c3C)cc(NC(=O)c3cccc(F)c3Cl)cc2[nH]1` [Example 100, 6-{[(2-Chloro-3-fluorophenyl)carbonyl]amino}-N-(3-chloro-2-methylphenyl)-2-(methoxymethyl)-1H-benzimidazole-4-carboxamide hydrochloride], the negative logarithm of the IC50 (pIC50) on human mPGES-1 was 7.48; in the test on A549 cells, 6.91.

As to `Cc1nc2c(C(=O)Nc3cccc(Cl)c3C)cc(NC(=O)c3ccccc3C(F)(F)F)cc2[nH]1` [Example 14, N-(3-Chloro-2-methylphenyl)-2-methyl-6-({[2-(trifluoromethyl)phenyl]carbonyl}amino)-1H-benzimidazole-4-carboxamide hydrochloride], the negative logarithm of the IC50 (pIC50) was 8.42 at human mPGES-1 and 7.82 in the test on A549 cells.

Take `COCc1nc2c(C(=O)Nc3cccc(Cl)c3C)cc(NC(=O)c3ccc(C)cc3Cl)cc2[nH]1` [Example 105, N-(3-Chloro-2-methylphenyl)-6-{[(2-chloro-4-methylphenyl)carbonyl]amino}-2-(methoxymethyl)-1H-benzimidazole-4-carboxamide hydrochloride]: the pIC50 on human mPGES-1 was 8.05; with A549 cells, 6.49.

`COCc1nc2c(C(=O)Nc3cccc(Cl)c3C)cc(NC(=O)c3ccccc3C(F)(F)F)cc2[nH]1` [Example 11, N-(3-chloro-2-methylphenyl)-2-(methoxymethyl)-6-({[2-(trifluoromethyl)phenyl]carbonyl}amino)-1H-benzimidazole-4-carboxamide]: the negative logarithm of the IC50 (pIC50) at human mPGES-1 was 8.18; in the test with A549 cells it was 7.89.

With `COCCc1nc2c(C(=O)Nc3ccc(C)c(Cl)c3)cc(NC(=O)c3cc(Cl)ccc3Cl)cc2[nH]1` [Example 213, N-(3-Chloro-4-methylphenyl)-6-{[(2,5-dichlorophenyl)carbonyl]amino}-2-(2-methoxyethyl)-1H-benzimidazole-4-carboxamide hydrochloride], the pIC50 was 9.05 at human mPGES-1 and 6.85 in the test on A549 cells.

On to `CC(C)Cc1nc2c(C(=O)NCc3ccccc3C(F)(F)F)cc(NC(=O)c3ccccc3C(F)(F)F)cc2[nH]1` [Example 60, 2-(2-Methylpropyl)-N-[2-(trifluoromethyl)benzyl]-6-({[2-(trifluoromethyl)phenyl]carbonyl}amino)-1H-benzimidazole-4-carboxamide hydrochloride], for which the pIC50 on human mPGES-1 is 7.70; in the test on A549 cells it was 8.10.

Consider `Cc1ccc(NC(=O)c2cc(NC(=O)c3ccccc3C(F)(F)F)cc3[nH]c(C(C)(C)C)nc23)cc1Cl` [Example 86, 2-tert-Butyl-N-(3-chloro-4-methylphenyl)-6-({[2-(trifluoromethyl)phenyl]carbonyl}amino)-1H-benzimidazole-4-carboxamide hydrochloride], for which the pIC50 is 9.00 on human mPGES-1 and 8.29 in the test with A549 cells.

`Cc1c(Cl)cccc1NC(=O)c1cc(NC(=O)c2ccccc2C(F)(F)F)cc2[nH]c([C@@H]3CCC(=O)N3)nc12` [Example 130, N-(3-Chloro-2-methylphenyl)-2-[(2S)-5-oxopyrrolidin-2-yl]-6-({[2-(trifluoromethyl)phenyl]carbonyl}amino)-1H-benzimidazole-4-carboxamide hydrochloride]: the values for the pIC50 on human mPGES-1 and in the test with A549 cells were 8.41 and less than 5.00, respectively.

As for `COCc1nc2c(C(=O)Nc3cccc(Cl)c3C)cc(NC(=O)c3cccnc3Cl)cc2[nH]1` [Example 96, N-(3-Chloro-2-methylphenyl)-6-{[(2-chloropyridin-3-yl)carbonyl]amino}-2-(methoxymethyl)-1H-benzimidazole-4-carboxamide hydrochloride], the negative logarithm of the IC50 (pIC50) at human mPGES-1 was 7.47; in the test on A549 cells, 6.90.

Regarding `Cc1c(Cl)cccc1NC(=O)c1cc(NC(=O)c2cc(Cl)ccc2Cl)cc2[nH]c(C(C)(C)C)nc12` [Example 87, 2-tert-Butyl-N-(3-chloro-2-methylphenyl)-6-{[(2,5-dichlorophenyl)carbonyl]amino}-1H-benzimidazole-4-carboxamide hydrochloride], the pIC50 at human mPGES-1 is 8.24; with A549 cells, 8.16.

For `Cc1c(Cl)cccc1NC(=O)c1cc(NC(=O)c2cc(Cl)ccc2Cl)cc2[nH]c(C3CC3)nc12` [Example 208, N-(3-Chloro-2-methylphenyl)-2-cyclopropyl-6-{[(2,5-dichlorophenyl)carbonyl]amino}-1H-benzimidazole-4-carboxamide hydrochloride], the pIC50 was 9.15 on human mPGES-1 and 7.89 in the test with A549 cells.

For `Cc1c(Cl)cccc1NC(=O)c1cc(NC(=O)c2ccccc2C(F)(F)F)cc2[nH]c(Cl)nc12` [Example 135, 2-Chloro-N-(3-chloro-2-methylphenyl)-6-({[2-(trifluoromethyl)phenyl]carbonyl}amino)-1H-benzimidazole-4-carboxamide], the pIC50 is 9.52 on human mPGES-1 and 7.06 in the test on A549 cells.

In general, pIC50 refers to the IC50 on a negative log10 scale, so that one unit is a factor of ten.
